Test results reported in patent publication US9371289B2, “Phenoxyethyl dihydro-1H-isoquinoline compounds” (Eli Lilly and Company, priority 2013, dated 2016).
Counter-ions that a name gives are not always drawn.

What was measured:
human EP2 = target: T1, human EP2 (Homo sapiens, UniProt P43116); experiment: In vitro binding to human EP2 ([3H]-PGE2 displacement, HEK293 membranes); conditions: [3H]-PGE2 binding, hEP2 membranes from transiently transfected HEK293 cells
T1 construct: expressed in transfected cells; host or cells: HEK293 (transient), membranes
T1 sequence (P43116 whole entry): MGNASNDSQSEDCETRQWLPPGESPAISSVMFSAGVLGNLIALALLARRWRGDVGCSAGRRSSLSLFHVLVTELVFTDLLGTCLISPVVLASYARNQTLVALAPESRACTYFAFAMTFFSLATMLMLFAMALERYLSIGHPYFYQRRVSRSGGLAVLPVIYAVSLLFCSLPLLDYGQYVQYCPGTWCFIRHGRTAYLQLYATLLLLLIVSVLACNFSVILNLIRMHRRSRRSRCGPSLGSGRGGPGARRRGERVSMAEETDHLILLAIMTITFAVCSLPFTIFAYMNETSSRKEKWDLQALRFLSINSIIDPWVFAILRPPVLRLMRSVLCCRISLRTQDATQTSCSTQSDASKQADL
Description: (§1) hEP1 and hEP4 membranes are prepared from recombinant HEK293 cells stably expressing the human EP1 (Genbank accession number AY275470) or EP4 (Genbank accession number AY429109) receptors. hEP2 and hEP3 membranes are prepared from HEK293 cells transiently transfected with EP2 (Genbank accession number AY275471) or EP3 (isoform VI: Genbank accession number AY429108) receptor plasmids. Frozen cell pellets are homogenized in homogenization buffer using a Teflon/glass homogenizer. Membrane protein is aliquoted and quick frozen on dry ice prior to storage at −80° C. […]
(§2) Kd values for [3H]-PGE2 binding to each receptor are determined by saturation binding studies or homologous competition. […] Nonspecific binding is calculated by comparing binding in the presence and absence of 2 μM of PGE2. The membranes are harvested by filtration (TomTek harvester), washed 4 times with cold buffer (10 mM MES pH 6.0 with KOH, 10 mM MgCl2), dried in a 60° C. oven, and the radioactivity is quantified as counts per minute (CPM) using a TopCount® detector. Percent specific binding is calculated as the percent of the binding in the absence of any inhibitor, corrected for non-specific binding in the presence of 2 μM of PGE2. […]

rat EP4 = target: T2, rat EP4 (Rattus norvegicus, UniProt P43114); experiment: In vitro rat EP4 functional antagonist activity (cAMP HTRF); format: cell-based; conditions: HEK293 cells expressing rat EP4; PGE2 at EC80; n=1; read-out: IC50 measured at rat EP4 (cAMP)
T2 construct: expressed in transfected cells
T2 sequence (P43114 whole entry): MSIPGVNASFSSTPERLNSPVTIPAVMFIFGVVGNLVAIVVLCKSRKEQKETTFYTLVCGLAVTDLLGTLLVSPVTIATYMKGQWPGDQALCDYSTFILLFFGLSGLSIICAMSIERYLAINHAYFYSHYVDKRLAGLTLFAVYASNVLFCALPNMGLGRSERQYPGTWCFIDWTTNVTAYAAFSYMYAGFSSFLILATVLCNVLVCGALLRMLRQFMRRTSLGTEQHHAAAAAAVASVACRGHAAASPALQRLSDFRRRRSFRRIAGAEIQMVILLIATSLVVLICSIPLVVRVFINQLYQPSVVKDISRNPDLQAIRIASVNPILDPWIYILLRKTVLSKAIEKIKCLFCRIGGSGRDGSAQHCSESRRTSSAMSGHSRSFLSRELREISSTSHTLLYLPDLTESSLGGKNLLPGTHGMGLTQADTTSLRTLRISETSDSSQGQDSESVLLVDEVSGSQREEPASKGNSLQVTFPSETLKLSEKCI
Description: Rat EP4 cDNA (Genebank Accession# NM_03276) is cloned into pcDNA 3.1 vector and subsequently transfected in HEK293 cells for receptor expression. Rat EP4 stable clone is scaled up and then frozen down as cell bank for future compounds screening. To test EP4 antagonist compounds in rEP4 cells, thaw the frozen cells and then resuspend cells in cAMP assay buffer. The cAMP buffer is made by HBSS without Phenol Red (Hyclone, SH30268) supplemented with 20 mM HEPES (Hyclone, SH30237), 0.1% BSA (Gibco, 15260) and 125 μM IBMX (Sigma, 15879) (see e.g., Murase, A., et al., Life Sciences, 82:226-232 (2008)). The cells are plated into 96-well half area flat-bottom polystyrene black plates (Costar 3694). Compounds are serial diluted with DMSO to give 10-point concentration response curves. Then diluted compounds are added into cAMP assay buffer which contains PGE2 (Cayman 14010, in a concentration predetermined to produce an EC80) at ratio of DMSO/buffer at 1/100. The cells are treated with compounds in the presence of PGE2 (EC80 concentration) for 30 minutes at room temperature. The cAMP levels generated from the cells are quantified by a cAMP HTRF assay kit (Cisbio 62AM4PEC). The plates are read on an EnVision plate reader using HTRF optimized protocol (PerkinElmer). IC50s are calculated using Graphpad Prism (v. 4) nonlinear regression, sigmoidal dose response curve fitting.

human EP4 [1] = target: T3, human EP4 (Homo sapiens, UniProt P35408); experiment: In vitro binding to human EP4 ([3H]-PGE2 displacement, HEK293 membranes); design: expressed in transfected cells; conditions: [3H]-PGE2 binding, hEP4 membranes from recombinant HEK293 cells
T3 sequence (P35408 whole entry): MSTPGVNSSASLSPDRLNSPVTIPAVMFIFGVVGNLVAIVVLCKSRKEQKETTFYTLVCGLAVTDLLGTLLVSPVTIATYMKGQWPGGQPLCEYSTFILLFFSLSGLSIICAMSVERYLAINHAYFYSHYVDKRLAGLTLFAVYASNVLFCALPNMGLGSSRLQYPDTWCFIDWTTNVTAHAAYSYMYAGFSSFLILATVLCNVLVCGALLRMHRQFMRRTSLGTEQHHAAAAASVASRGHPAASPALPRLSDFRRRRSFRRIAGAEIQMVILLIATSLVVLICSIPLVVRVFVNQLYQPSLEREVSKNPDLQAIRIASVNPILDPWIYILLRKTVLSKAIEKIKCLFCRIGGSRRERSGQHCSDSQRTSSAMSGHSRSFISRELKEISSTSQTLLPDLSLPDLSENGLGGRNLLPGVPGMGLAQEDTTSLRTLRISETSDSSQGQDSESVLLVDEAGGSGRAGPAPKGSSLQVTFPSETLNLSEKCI
Description: as §1, §2

human EP3 = target: T4, human EP3 (Homo sapiens, UniProt P43115); experiment: In vitro binding to human EP3 ([3H]-PGE2 displacement, HEK293 membranes); conditions: [3H]-PGE2 binding, hEP3 (isoform VI) membranes from transiently transfected HEK293 cells
T4 construct: expressed in transfected cells; host or cells: HEK293 (transient), membranes
T4 sequence (P43115 1-374 isoform P43115-4): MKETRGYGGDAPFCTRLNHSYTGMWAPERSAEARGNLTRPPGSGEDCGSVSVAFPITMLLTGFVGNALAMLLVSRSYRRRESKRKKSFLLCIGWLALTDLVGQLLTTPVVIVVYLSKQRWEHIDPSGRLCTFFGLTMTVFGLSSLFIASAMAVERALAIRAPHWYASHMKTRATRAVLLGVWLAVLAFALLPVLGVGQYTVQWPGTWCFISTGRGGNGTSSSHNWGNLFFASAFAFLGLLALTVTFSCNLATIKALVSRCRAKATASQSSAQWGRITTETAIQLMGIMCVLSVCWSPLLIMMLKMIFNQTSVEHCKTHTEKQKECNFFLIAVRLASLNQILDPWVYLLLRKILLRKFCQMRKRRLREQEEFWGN
Description: as §1, §2

human EP4 [2] = target: T3, human EP4; experiment: In vitro human EP4 functional antagonist activity (inhibition of PGE2-stimulated cAMP production, HTRF); format: cell-based; design: expressed in transfected cells; conditions: HEK293 cells stably expressing human EP4; PGE2 at EC80 (0.188 nM); read-out: IC50 measured at human EP4 (inhibition of PGE2-stimulated cAMP production)
Description: Assays are conducted in recombinant HEK293 cells stably expressing human EP4 receptor. The cell lines are maintained by culturing in DMEM with high glucose and pyridoxine hydrochloride (Invitrogen) supplemented with 10% fetal bovine serum (FBS), 1 mM sodium pyruvate, 10 mM HEPES, 500 μg/mL geneticin and 2 mM L-glutamine. Confluent cultures are grown at 37° C. in an atmosphere containing 5% CO2. Cells are harvested using 0.25% Trypsin-EDTA, suspended in freeze media (FBS with 6% DMSO) at 10^7 cells/mL and aliquots are stored in liquid nitrogen. Just before assay, cells are thawed in DMEM, centrifuged, and resuspended in cAMP buffer.
The inhibition of PGE2-stimulated cAMP production by EP4 antagonists is measured using HTRF (Cisbio catalogue #62AM4PEB). An aliquot equivalent to 4000 cells is incubated with 50 μL cAMP assay buffer containing PGE2 in a concentration predetermined to produce an EC80 (0.188 nM PGE2 from Sigma, catalog # P5640-10 mg) and EP4 antagonists at room temperature for 20 minutes. cAMP assay buffer contains 500 mL HBSS, 0.1% BSA, 20 mM HEPES and 200 μM IBMX (Sigma I5879). […] The HTRF signal is detected using an EnVision plate reader (Perkin-Elmer) to calculate the ratio of fluorescence at 665 nm to that at 620 nm. […]

human EP1 = target: T5, human EP1 (Homo sapiens, UniProt P34995); experiment: In vitro binding to human EP1 ([3H]-PGE2 displacement, HEK293 membranes); conditions: [3H]-PGE2 binding, hEP1 membranes from recombinant HEK293 cells
T5 construct: expressed in transfected cells
T5 sequence (P34995 1-402): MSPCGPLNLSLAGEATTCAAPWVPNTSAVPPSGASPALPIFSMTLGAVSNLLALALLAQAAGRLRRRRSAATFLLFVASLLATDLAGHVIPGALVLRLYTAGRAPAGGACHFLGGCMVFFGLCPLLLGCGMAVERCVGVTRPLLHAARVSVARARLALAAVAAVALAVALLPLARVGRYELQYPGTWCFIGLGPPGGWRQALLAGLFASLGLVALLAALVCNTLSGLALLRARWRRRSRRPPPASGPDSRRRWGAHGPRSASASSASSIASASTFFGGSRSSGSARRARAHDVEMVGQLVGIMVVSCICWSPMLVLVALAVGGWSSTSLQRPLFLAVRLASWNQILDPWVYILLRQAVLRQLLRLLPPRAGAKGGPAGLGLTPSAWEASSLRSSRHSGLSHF
Description: as §1, §2

human EP4 [3] = target: T3, human EP4; experiment: In vitro antagonist activity in human whole blood (reversal of PGE2 inhibition of LPS-induced TNFα production); format: cell-based; design: Blood is collected from normal volunteer donors; from tissue; host or cells: human whole blood from volunteer donors; conditions: LPS 10 μg/mL with 10 nM PGE2, geometric mean ± standard deviation, read-out: IC50 in human blood TNFα induction assay
Excerpt: The inhibitory effects of PGE2 on LPS-induced TNFα production from macrophages/monocytes are believed to be mediated by EP4 receptors (See Murase, A., et al., Life Sciences, 82:226-232 (2008)). The ability of the compound of Example 1 to reverse the inhibitory effect of PGE2 on LPS-induced TNFα production in human whole blood is an indicia of functional activity.
Blood is collected from normal volunteer donors into sodium heparin vacutainer tubes. Donors have not taken NSAIDs or celecoxib within 48 hours or glucocorticoids within two weeks prior to the donation. All tubes/donor are pooled into 50 mL Falcon conical centrifuge tubes and 98 μL/well is distributed into 96-well tissue culture plates (Falcon 3072). […] TNFα levels in 2 μL plasma are quantified by a commercially available enzyme immunoassay (R&D Systems DY210), using Immulon 4 HBX plates (Thermo 3855) and 3,3′,5,5′ tetramethylbiphenyl-4,4′-diamine substrate (KPL 50-76-03). The plates are read at A450-A650 on a plate reader (Molecular Devices Versamax) using SOFTmaxPRO (v. 4.3.1) software. IC50s are calculated using Graphpad Prism (v. 4) nonlinear regression, with sigmoidal dose response curve fitting. Results are expressed as the geometric mean±standard deviation; n=number of independent determinations.

Ki (human EP2) [nM]	IC50 (rat EP4) [nM]	Ki (human EP4 [1]) [nM]	Ki (human EP3) [nM]	IC50 (human EP4 [2]) [nM]	Ki (human EP1) [nM]	IC50 (human EP4 [3]) [nM]	SMILES
1320 ± 1780	2	0.403 ± 0.247	> 14800	0.752 ± 0.538	7920 ± 5810	39 ± 21	C[C@H](NC(=O)[C@H]1Cc2ccccc2CN1CCOc1ccccc1)c1ccc(C(=O)O)cc1 [Example 1, 4-[(1S)-1-[[(3R)-2-(2-phenoxyethyl)-3,4-dihydro-1H-isoquinoline-3-carbonyl]amino]ethyl]benzoic acid]
331 ± 72	6.7	0.38 ± 0.142	> 14600	0.45 ± 0.256	4650	61 ± 55	C[C@H](NC(=O)[C@H]1Cc2ccccc2CN1CCOc1ccc(F)cc1)c1ccc(C(=O)O)cc1 [Example 2, 4-[(1S)-1-[[(3R)-2-(2-(4-fluorophenoxy)ethyl)-3,4-dihydro-1H-isoquinoline-3-carbonyl]amino]ethyl]benzoic acid hydrochloride]
